Test [1] relates to lymphoid cells differentiation. In words: Effects in thymectomized guinea pigs. Type of test: in vivo. Particulars: thymectomized animals; 1 microg per kg i.m. daily for 10 days; 15th day. The protocol: Model: Thymectomy (removal of thymus): 30 mongrel male guinea pigs. Treatment: i.m. single daily 1 microg HM897 per kg for 10 days. Treatment of controls: normal saline 0.5 ml i.m. single daily for 10 days (there were two controls—thymectomized and sham-operated). Parameters were determined on the 15th day after onset of the treatment. Tested parameters: clinical blood examination, “active” T-lymphocytes and total T-lymphocytes (E-RFC), B-lymphocytes (EAC-RFC) were measured in blood, thymus, lymph nodes, spleen and red bone marrow.

For test [2], the system named is posthemorrhagic anemia. Put plainly: Erythropoietic effect in posthemorrhagic anemia. Format: in vivo, mice. The protocol: This test was designed to study posthemorrhagic anemia (acute blood loss caused by taking blood from retroorbital sinus), and hemolytic anemia induced by phenylhydrazine hydrochloride (120 mg active ingredients/kg 30 Balb/c-mice and 30 CBA-mice). HM897 was injected intraperitoneally in doses of 100 and 150 microg per kg, 3 hours and 1 day after intervention modelling anemia, for 5 days. Tester parameters: RBC, leukocytes, reticulocytes, Hb, Hct

In test [3] the test system is hemodepression induced by 5-fluorouracil. Put plainly: Hemostimulating effect in 5-fluorouracil-induced hemodepression. Format: in vivo, CBA-mice. The protocol:
The test was designed to study hemodepression induced by 5-fluorouracil injected i.p. in a dose 175 mg per kg (172 male CBA-mice). Treatment: peptide HM897 was administered i.p. starting from 4th day after 5-FU injection in doses 0.00001, 0.001, 0.01, 1.0 mg/kg for 5 days. Treatment of controls: normal saline i.p. for 5 days. Tested parameters: peripheral blood count and bone marrow differential count.

The subject of test [4] is guinea-pig myelokaryocytes. Put plainly: Colony-forming activity of macrophage precursors. Particulars: tested 1.0 to 0.0000001 microg/ml. Type of test: cell-based. How it is done:
This test is designed to study macrophage precursors. Cultured cells used were guinea-pig myelokaryocytes. HM897 was added to cell culture in concentrations 1.0, 0.001, 0.00001 and 0.0000001 microg/ml.

In test [5] the test system is blood lymphoid cells and immune organs after irradiation. In words: Effect on immune system of irradiated guinea pigs. Format: in vivo. The protocol: Twenty-two male guinea pigs were used in the following test.
Guinea pigs were exposed to irradiation in a total. does 1Gy.target-skin distance—70 cm; time of exposure—2′48″ Device: 180 kV; 15 mA; filter 0.5 Cu Treatment: i.m. single daily 1 microg. HM897 per kg for 5 days.
Treatment of controls: normal saline 0.5 ml i.m. single daily for 5 days.
Leukocyte and lymphocyte levels were measured in peripheral blood on the 7th, 14th, 21st, 36th and 44th day after irradiation.
In a second test 40 male guinea pigs were used, and the same regimen was followed.
There were two controls—irradiated and non-irradiated. Parameters were evaluated on the 8th and 21st days after irradiation. Tested parameters: clinical blood examination, non-specific resistance by lysosomal cationic test; “active” T-lymphocytes and total T-lymphocytes (E-RFC), B-lymphocytes (EAC-RFC) were measured in blood, thymus, lymph nodes, spleen and red bone marrow. Blood lymphocyte functional activity was evaluated by leukocyte migration inhibition (LMI) with ConA. Histological examinations of thymus, spleen, lymph nodes, bone marrow and adrenals were carried out.

Test [6] relates to lymphoid cells in blood, thymus, lymph nodes, spleen and red bone marrow. Put plainly: Effect on immune system of healthy guinea pigs. Type of test: in vivo. The protocol:
Forty male guinea pigs were used in the following test. Most of the animals were treated daily with a single dose (i.m.) of Thr-Ala-Glu-Glu-Lys (SEQ ID NO:34) (HM897) […] for five days. Control animals were treated with single daily doses of 0.5 ml (i.m.) of normal saline.
Tested parameters: clinical blood examination, non-specific resistance by lysosomal cationic test; “active” T-lymphocytes and total T-lymphocytes (E-RFC), B-lymphocytes (EAC-RFC) were measured in blood, thymus, lymph nodes, spleen and red bone marrow. […] Blood lymphocyte functional activity was evaluated by leukocyte migration inhibition (LMI) with ConA. Histological examinations of thymus, spleen, lymph nodes, bone marrow and adrenals were carried out. All of these indicia were measured on 10th and 20th days after onset of the treatment.

Some results are limits rather than exact numbers.

For Thr-Ala-Glu-Glu-Lys (TAEEK) [HM897], the lymphoid cells differentiation result in test [1] is on record as “does not stimulate lymphoid cells differentiation”. Moreover, in test [2], the “Hb level and plasma/formed elements ratio restoration” value is “more rapid”. The substance further displayed a most effective dose in test [2] (doses 100 and 150 i.p.) of 150 µg/kg. Besides, the RBC count in test [2] (on the 6th day after administration) is listed as 7.1 mln/ml. Moreover, the restoration of hemopoiesis result in test [3] (5-FU hemodepression, CBA-mice) is “promotes active restoration of hemopoiesis”. In test [3] (i.p. for 5 days from 4th day after 5-FU 175 mg per kg), the “dose from which the peptide was active” value was not below 1 µg/kg. Also, in test [4], the “concentration from which macrophage precursors colony-forming activity is stimulated” value was not below 0.0000001 µg/mL. Further, the “leukocyte and lymphocyte levels in peripheral blood” value in test [5] (irradiation 1 Gy, 1 microg per kg i.m. daily for 5 days, days 7-44) was “restoration of leukocyte and lymphocyte levels”. Moreover, the “peripheral blood lymphocytes and neutrophil functional activity” value in test [5] (second test, irradiated animals) was “restored peripheral blood lymphocytes and neutrophil functional activity”. Further, the “T-lymphocyte maturation and migration” value in test [5] (second test, irradiated animals, early terms of observation) was “accelerates T-lymphocyte maturation and their migration to peripheral immune organs”. The “proliferation and differentiation in organs of the immune system” value in test [5] (second test, irradiated animals, later stage of the study) was “enhancement of proliferation and differentiation in both central and peripheral organs of the immune system”. Further, the lymphocyte stimulation entry in test [6] (10th day) is “predominant T-lymphocyte stimulation”; in test [6] (20th day), “both T- and B-lymphocytes”. Besides, in test [6] (10th day after onset of administration), the “mitotic activity in lymph nodes, spleen and bone marrow” value is given as “increased level of mitotic activity”. Besides, the “lymphoid cells proliferation and differentiation in thymus and bone marrow” value in test [6] (healthy guinea pigs, i.m. single daily dose for five days) was “stimulates lymphoid cells proliferation and differentiation in thymus and bone marrow”.

Values taken from patent US6346514B1, “Pharmaceutical lysine-containing polypeptide compositions and methods of use thereof” (priority 1991, dated 2002).
